Measured values as given in ChEMBL document CHEMBL1201862, “PubChem BioAssay data set” (2004).
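Results reflect a 48-hour exposure of cells in 96-well plates to compound at five concentrations. At the GI50, growth is halved.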 Activity calls are given as the source filed them. No stated cut-off is given here; in the data, active = GI50 up to about 1.1 µM and inactive = higher.

Tests used:
Test in all cases: NCI tumour cell line growth inhibition, 48 h
[1] = test system: ACHN
[2] = test system: CAKI-1
[3] = test system: EKVX
[4] = test system: HL-60
[5] = test system: HOP-62
[6] = test system: M14
[7] = test system: NCI-H522
[8] = test system: OVCAR-3
[9] = test system: OVCAR-8
[10] = test system: SF-295
[11] = test system: SK-OV-3
[12] = test system: SN12C
[13] = test system: SR
[14] = test system: UACC-257
[15] = test system: UACC-62
[16] = test system: UO-31
[17] = test system: BT-549
[18] = test system: Hs-578T
[19] = test system: DU-145
[20] = test system: MDA-N

SMILES	GI50 [1]	GI50 [2]	GI50 [3]	GI50 [4]	GI50 [5]	GI50 [6]	GI50 [7]	GI50 [8]	GI50 [9]	GI50 [10]	GI50 [11]	GI50 [12]	GI50 [13]	GI50 [14]	GI50 [15]	GI50 [16]	GI50 [17]	GI50 [18]	GI50 [19]	GI50 [20]
N#C/C(=C\c1ccc(O)c(O)c1)C(=O)NC1CCC(CC2CCC(NC(=O)/C(C#N)=C/c3ccc(O)c(O)c3)CC2)CC1 (stereo not drawn)	0.718 µM (active)	2.04 µM (inactive)	3.48 µM (inactive)	0.902 µM (active)	1.89 µM (inactive)	1.85 µM (inactive)	0.437 µM (active)	1.37 µM (inactive)	0.459 µM (active)	1.3 µM (inactive)	3.82 µM (inactive)	2.33 µM (inactive)	0.424 µM (active)	2.84 µM (inactive)	1.59 µM (inactive)	1.77 µM (inactive)				
O=S(=O)([N-]c1nc2ccccc2nc1-[n+]1ccccc1)c1ccccc1	> 100 µM (inactive)	> 100 µM (inactive)	> 100 µM (inactive)	22.1 µM (inactive)	46.1 µM (inactive)	> 100 µM (inactive)	> 100 µM (inactive)	> 100 µM (inactive)	68.5 µM (inactive)	> 100 µM (inactive)	> 100 µM (inactive)	> 100 µM (inactive)	14.9 µM (inactive)	> 100 µM (inactive)	93.1 µM (inactive)	> 100 µM (inactive)	20.8 µM (inactive)	> 100 µM (inactive)		
O=C1CCC(=O)C(C(=O)CCC(=O)Nc2cccc(Cl)c2)C1 (stereo not drawn)	> 100 µM (inactive)	> 100 µM (inactive)	> 100 µM (inactive)	> 100 µM (inactive)	> 100 µM (inactive)	> 100 µM (inactive)	> 100 µM (inactive)	> 100 µM (inactive)	> 100 µM (inactive)	> 100 µM (inactive)	> 100 µM (inactive)	> 100 µM (inactive)	> 100 µM (inactive)	> 100 µM (inactive)	> 100 µM (inactive)	> 100 µM (inactive)				
O/N=C1/CCCCCC1NO (stereo not drawn)	> 100 µM (inactive)	> 100 µM (inactive)	> 100 µM (inactive)		> 100 µM (inactive)	> 100 µM (inactive)		> 100 µM (inactive)	> 100 µM (inactive)	> 100 µM (inactive)	> 100 µM (inactive)	> 100 µM (inactive)	> 10 µM (inactive)	> 100 µM (inactive)	> 100 µM (inactive)	> 100 µM (inactive)		> 100 µM (inactive)	> 100 µM (inactive)	> 100 µM (inactive)
COc1ccc([C@@]23CCC(=O)C[C@@H]2N(C)CC3)cc1OC	> 100 µM (inactive)	> 100 µM (inactive)	> 100 µM (inactive)	> 100 µM (inactive)	> 100 µM (inactive)	> 100 µM (inactive)	> 100 µM (inactive)	> 100 µM (inactive)	> 100 µM (inactive)	> 100 µM (inactive)	> 100 µM (inactive)		66.2 µM (inactive)	> 100 µM (inactive)	> 100 µM (inactive)	> 100 µM (inactive)		> 100 µM (inactive)	> 100 µM (inactive)	> 100 µM (inactive)
COC(=O)CSc1nnc(-c2ccccc2)[nH]1	> 100 µM (inactive)	> 100 µM (inactive)	> 100 µM (inactive)	> 100 µM (inactive)	> 100 µM (inactive)	> 100 µM (inactive)	> 100 µM (inactive)	> 100 µM (inactive)	> 100 µM (inactive)	> 100 µM (inactive)	> 100 µM (inactive)	> 100 µM (inactive)	3.7 µM (inactive)	> 100 µM (inactive)	> 100 µM (inactive)	> 100 µM (inactive)				
COC(=O)C(CC(=O)Nc1ccc(Cl)c(Cl)c1)C(=O)C(=O)NC1C2CC3CC(C2)CC1C3 (stereo not drawn)	> 100 µM (inactive)	> 100 µM (inactive)	54.6 µM (inactive)	> 100 µM (inactive)	> 100 µM (inactive)	> 100 µM (inactive)	> 100 µM (inactive)	> 100 µM (inactive)	> 100 µM (inactive)	> 100 µM (inactive)	> 100 µM (inactive)	> 100 µM (inactive)	> 100 µM (inactive)	> 100 µM (inactive)	92.7 µM (inactive)	> 100 µM (inactive)				
Nc1nc(Cl)cc(OCC2(CO)CCCCC2)n1	> 100 µM (inactive)		84.7 µM (inactive)	85.7 µM (inactive)	> 100 µM (inactive)		53.1 µM (inactive)	> 100 µM (inactive)	96.6 µM (inactive)	> 100 µM (inactive)		> 100 µM (inactive)	> 100 µM (inactive)	78.7 µM (inactive)				> 100 µM (inactive)	> 100 µM (inactive)	> 100 µM (inactive)
CN(C)c1ccc(C2CC(=O)CC(c3ccc(N(C)C)cc3)C23C(=O)NC(=S)NC3=O)cc1 (stereo not drawn)	> 100 µM (inactive)	> 100 µM (inactive)	55.5 µM (inactive)	> 100 µM (inactive)	18 µM (inactive)	> 100 µM (inactive)		> 100 µM (inactive)		57.9 µM (inactive)	> 100 µM (inactive)	> 100 µM (inactive)	> 100 µM (inactive)	> 100 µM (inactive)	> 100 µM (inactive)	> 100 µM (inactive)		30.2 µM (inactive)	> 100 µM (inactive)	> 100 µM (inactive)
CN1CCN(C2=C(Cl)C3(OCCS3)C(F)(F)C2(F)F)CC1 (stereo not drawn)	> 100 µM (inactive)	> 100 µM (inactive)	> 100 µM (inactive)	64.4 µM (inactive)	46.9 µM (inactive)	> 100 µM (inactive)	> 100 µM (inactive)	57 µM (inactive)	> 100 µM (inactive)	48.2 µM (inactive)	> 100 µM (inactive)	> 100 µM (inactive)	> 100 µM (inactive)	27.2 µM (inactive)	> 100 µM (inactive)	55 µM (inactive)		> 100 µM (inactive)	> 100 µM (inactive)	> 100 µM (inactive)
O=CCOCc1cc2c(cc1Br)OCO2	23.1 µM (inactive)	19.9 µM (inactive)	> 100 µM (inactive)	20.9 µM (inactive)	> 100 µM (inactive)	20.3 µM (inactive)	15.7 µM (inactive)	17.3 µM (inactive)	20.7 µM (inactive)	> 100 µM (inactive)	> 100 µM (inactive)	34.5 µM (inactive)	24.7 µM (inactive)	> 100 µM (inactive)	43.4 µM (inactive)	21.1 µM (inactive)		17.1 µM (inactive)	28.2 µM (inactive)	37.2 µM (inactive)
CC(C)(Oc1ccccc1)C(=O)Sc1c(-c2ccccc2)c(=O)n(-c2ccccc2)c(=S)n1-c1ccccc1	33.1 µM (inactive)	> 100 µM (inactive)	> 100 µM (inactive)	25.9 µM (inactive)	22 µM (inactive)	27 µM (inactive)	21.9 µM (inactive)	32 µM (inactive)	18.6 µM (inactive)	59.8 µM (inactive)	26.7 µM (inactive)	51.3 µM (inactive)	22.1 µM (inactive)	> 100 µM (inactive)	80 µM (inactive)	65.3 µM (inactive)		24.2 µM (inactive)	95.9 µM (inactive)	56.8 µM (inactive)
O=[N+]([O-])c1ccc2[nH]nc(OCc3ccccn3)c2c1	> 100 µM (inactive)	> 100 µM (inactive)	> 100 µM (inactive)	> 100 µM (inactive)	> 100 µM (inactive)	> 100 µM (inactive)	> 100 µM (inactive)	61 µM (inactive)	> 100 µM (inactive)	38.8 µM (inactive)	73.8 µM (inactive)	> 100 µM (inactive)	> 100 µM (inactive)	> 100 µM (inactive)	> 100 µM (inactive)	> 100 µM (inactive)		35.2 µM (inactive)	> 100 µM (inactive)	> 100 µM (inactive)
CC[C@]12C=CCN3CCC4(c5cc([C@@]6(C(=O)OC)CC7CN(CCc8c6[nH]c6ccccc86)CC6CCCCC67)c(OC)cc5N(C)C4[C@](O)(C(=O)OC)C1OC(C)=O)[C@@H]32 (stereo partly drawn)	< 0.0146 µM (active)	< 0.0252 µM (active)	0.743 µM (active)	< 0.01 µM (active)	< 0.01 µM (active)	< 0.01 µM (active)	< 0.01 µM (active)	< 0.01 µM (active)	< 0.015 µM (active)	< 0.01 µM (active)	< 0.01 µM (active)	< 0.01 µM (active)		< 0.01 µM (active)	< 0.01 µM (active)	0.157 µM (active)		< 0.01 µM (active)	< 0.01 µM (active)	< 0.01 µM (active)
C[n+]1c(-c2ccc(/C=N/Nc3ccnc(N/N=C/c4ccc(-c5cn6ccccc6[n+]5C)cc4)n3)cc2)cn2ccccc21	25.3 µM (inactive)		> 100 µM (inactive)	24.5 µM (inactive)	43.2 µM (inactive)	31.2 µM (inactive)	> 100 µM (inactive)		82.4 µM (inactive)	17.9 µM (inactive)	> 100 µM (inactive)	> 100 µM (inactive)	59.4 µM (inactive)	24.2 µM (inactive)		21.2 µM (inactive)		30.5 µM (inactive)		28.9 µM (inactive)
C/C=C/C1=C(Cl)C(=O)[C@@H](Cl)[C@@]1(O)C(=O)OC [(+)-CRYPTOSPORIPSIN]	2.41 µM (inactive)	2.39 µM (inactive)	3.65 µM (inactive)	1.7 µM (inactive)	1.52 µM (inactive)	3.13 µM (inactive)	1.06 µM (active)	2.45 µM (inactive)	2.08 µM (inactive)	11.2 µM (inactive)	15.1 µM (inactive)	2.65 µM (inactive)	1.84 µM (inactive)	1.6 µM (inactive)	1.65 µM (inactive)	5.61 µM (inactive)				
